The test system of one test is LLC-MK2 cells. The test can be described thus: Viability assay (Alamar Blue) on LLC-MK2 cells. Type of test: cell-based, Rhesus monkey. Conditions: Macaca mulatta, read-out: Mammalian cells IC50 ± SD, LLC-MK2. As to the method: (§1) Rhesus monkey kidney epithelial cell LLC-MK2 (American Type Culture Collection-ATCC, Manassas, Va. # CCL-7), Hs-27 human fibroblasts (American Type Culture Collection-ATCC, Manassas, Va.), RAW 264.7 murine macrophages (American Type Culture Collection-ATCC, Manassas, Va.) U2-09 human osteoblasts (American Type Culture Collection-ATCC, Manassas, Va. # HTB-99) (American Type Culture Collection-ATCC, Manassas, Va.) cells were cultured in Dulbecco's Modified Eagle's Medium (DMEM), supplemented with 10% inactivated FBS, along with 1% of 10,000 units/ml penicillin and 10 mg/ml streptomycin in 0.9% sodium chloride. Intraperitoneal BALB/c mice macrophages were obtained and cultured in DMEM high-glucose, +L-glu, supplemented with 10% FBS (inactivated). The procedure was performed minimizing the distress and pain for the animals following the NIH guidance and animal protocol approved by UTEP's Institutional Animal Care and Use Committee (IACUC).
(§2) Viability assay on mammalian cells and T. cruzi epimastigotes. The cytotoxicity and anti-trypanosomal activity of the NC compounds was tested in human Hs27 fibroblasts (ATCC CRL-1634), LLC-MK2 cells (ATCC CCL-7), RAW 264.7 murine macrophages (ATCC TIB71) (American Type Culture Collection-ATCC, Manassa, Va.), mice intraperitoneal macrophages and in epimastigote forms of T. cruzi Y strain using Alamar Blue assay (Invitrogen—Life Technology, Grand Island, N.Y.). The experiments were performed as described using a range of concentration of 500 μM to 1 nM.
(§3) The statistical significance (p-value) of the compound's cytotoxicity was calculated using the General Linear Mixed Model Analysis. This analysis was used to test the linear effect of the logarithm of dose on the logit transformation of the percent survival. The IC50 was obtained as the exponent of the negative ratio of the y-intercept and the slope of the fitted regression line (SAS Software, Version 9.2). […] All experiments had statistical significance determined at p≦0.05(*), p≦0.01(**), and p≦0.001(***).
(In general: The colour change of resazurin is a common sign of viable cells or microbes.)

For test [1], the system named is T. cruzi intracellular amastigotes. The test can be described thus: High-content imaging infectivity assay, T. cruzi amastigote-infected human osteoblasts. Conditions: for IC50: Trypanosoma cruzi, Osteoblast; for parasite burden / percentage of infected cells, T. cruzi infected mammalian cells: human osteoblasts, 48 h. Type of test: cell-based, Trypanosoma cruzi. As to the method: Human osteoblasts were infected with T. cruzi trypomastigotes and were treated with each compound at multiple concentrations for 48 hours.
In vitro evaluation of the NC drug library on infectivity experiments by high-content imaging assay. Mice intraperitoneal macrophages and human osteoblasts were placed in a microplate and infected with the amastigote forms of L. major strain Friedlin clone V1 and T. cruzi Y strain respectably, followed by treatment with NC lead compounds (as shown in Table 1). Briefly, Image acquisition and analyses of the plates were carried out using the BD Pathway 855 high-resolution fluorescence bioimager system (BD Biosciences). Filter sets appropriate for the excitation and emission spectra of Draq5 were utilized. Images from […] (3×3 montage) were acquired per well with a 20× objective. To perform the host cell segmentation and counting of parasites, the BD AttoVision™ v1.6.2 Sub Object analysis was used. Draq5 creates a background, staining the host cell and parasite nucleus, but defining the cytoplasm as well, determining this way the amount of parasites within each mammalian cell. The host cell nucleus was excluded by size difference. Subsequently, the infection index was calculated based on the mean of these triplicate values by multiplying the percentage of infected cells and the constraints used in the HCIA assay that was of 2, 3, 5, and 8 parasites per cell.

Test [2] addresses lipoamide dehydrogenase (LipDH) also from T. cruzi (Trypanosoma cruzi, UniProt P90597). The test can be described thus: Lipoamide dehydrogenase inhibition. Type of test: biochemical. Conditions: preliminary, unpublished data.
In the next test the test system is T. cruzi epimastigotes. The test is described as follows: Viability assay (Alamar Blue) on T. cruzi epimastigotes. The format is cell-based. Conditions: Trypanosoma cruzi. Here is the method: as §2
In another test the test system is Hs27 human fibroblasts. The test can be described thus: Viability assay (Alamar Blue) on Hs27 fibroblasts. Type of test: cell-based. Conditions: read-out: Mammalian cells IC50 ± SD, Hs27 Fibroblasts. As to the method:
as §1, §2, §3

The target in test [3] is trypanothione reductase (TR) from T. cruzi (Trypanosoma cruzi, UniProt P28593). The test is described as follows: Trypanothione reductase inhibition. Type of test: biochemical. Conditions: preliminary, unpublished data.
The test system of test [4] is L. major promastigotes. The test can be described thus: Mitoprobe JC-1 mitochondrial membrane potential assay. Type of test: cell-based, Leishmania major. Conditions: three concentrations, four hours. Here is the method: L. major promastigotes and intraperitoneal macrophages from BALB/c mice were treated with each compound at three concentrations for four hours. Then, cells were stained with 2 μM of the fluorophore 5,5′,6,6′-tetrachloro-1,1′,3,3′-tetraethylbenzimidazolylcarboncyanine iodide (JC-1) following a modified version of manufacturer's instruction (Life Technologies, Grand Island, N.Y.). The disruption of mitochondrial Δψm is evidenced by an appreciable shift of the fluorescence signal from red to green. JC-1 aggregates or monomers, emitting red or green signal, were identified via flow cytometer (Cytomics Fc500) by using FL-2 or FL-1 detectors, respectively. A proton ionophore that dissipates the mitochondrial Δψm carbonyl cyanide 3-chlorophenylhydrazone (CCCP) at 50 μM, was used as a positive control. Cells treated with the diluent of the compounds (DMSO) and untreated were used as negative controls. Data collection and analysis was performed by using CXP software (Beckman Coulter). JC-1 is the most widely applied method for detecting mitochondrial depolarization occurring in the early stages of apoptosis.

The subject of test [5] is L. major promastigotes. The test can be described thus: Annexin V/PI assay on L. major promastigotes. Conditions: 24 h; NC901 2.5 μM, NC884 2.5 μM, NC2459 312 nM. Type of test: cell-based, Leishmania major. Here is the method:
Apoptosis was evaluated using Alexa Fluor® 488 Annexin V/PI Apoptosis Kit (Initrogen™-Life technology, Grand Island, N.Y.). L. major promastigotes and BALB/c mice intraperitoneal macrophages were treated with each compound for 24 h. After exposure, the parasites (5×10^7) and macrophages (5×10^6) were harvested, washed and re-suspended with PBS. The Annexin V/PI staining of cells followed the manufacturer's instructions. Then the samples were analyzed with Beckman Coulter Fc500 flow cytometer (Beckman Coulter, USA). The results were expressed as the number of annexin positive cells per thousand cells counted.

[6] abbreviates: in human osteoblasts, 48 h treatment, read-out: T. cruzi Intracellular Amastigotes IC50.
Where [7] appears, read: 96 h incubation, read-out: T. cruzi Epimastigotes EC50.
Where [8] appears, read: 96 hour incubation, read-out: EC50, T. cruzi epimastigotes.

Here are results for three compounds from patent US9669016B2, “Antiparasitic effect of Bis[3,5-Bis(Benzylidene)-4-Oxo-1-Piperidinyl]amide Derivatives” (priority 2014, dated 2017).

What is called IC50 is the concentration needed to halve the response being measured. As usually defined, the EC50 is the concentration needed to bring the measured effect to its halfway point.

Like-named read-outs stand apart in the source and are kept apart here.

Sequence of lipoamide dehydrogenase (LipDH) also from T. cruzi (P90597 whole entry): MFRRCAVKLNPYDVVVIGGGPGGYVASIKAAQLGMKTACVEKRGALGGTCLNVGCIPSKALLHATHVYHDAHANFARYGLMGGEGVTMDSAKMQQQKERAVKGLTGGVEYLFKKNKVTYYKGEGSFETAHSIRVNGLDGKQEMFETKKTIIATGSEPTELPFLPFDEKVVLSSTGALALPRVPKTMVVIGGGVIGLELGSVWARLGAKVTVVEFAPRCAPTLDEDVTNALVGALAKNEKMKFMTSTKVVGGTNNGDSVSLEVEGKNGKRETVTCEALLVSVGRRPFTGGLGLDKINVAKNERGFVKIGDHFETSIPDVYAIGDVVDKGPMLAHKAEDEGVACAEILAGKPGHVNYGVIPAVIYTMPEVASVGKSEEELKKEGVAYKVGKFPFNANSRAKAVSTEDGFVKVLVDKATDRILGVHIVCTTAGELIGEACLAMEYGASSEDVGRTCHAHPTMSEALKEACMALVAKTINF
Sequence of trypanothione reductase (TR) from T. cruzi (P28593 whole entry): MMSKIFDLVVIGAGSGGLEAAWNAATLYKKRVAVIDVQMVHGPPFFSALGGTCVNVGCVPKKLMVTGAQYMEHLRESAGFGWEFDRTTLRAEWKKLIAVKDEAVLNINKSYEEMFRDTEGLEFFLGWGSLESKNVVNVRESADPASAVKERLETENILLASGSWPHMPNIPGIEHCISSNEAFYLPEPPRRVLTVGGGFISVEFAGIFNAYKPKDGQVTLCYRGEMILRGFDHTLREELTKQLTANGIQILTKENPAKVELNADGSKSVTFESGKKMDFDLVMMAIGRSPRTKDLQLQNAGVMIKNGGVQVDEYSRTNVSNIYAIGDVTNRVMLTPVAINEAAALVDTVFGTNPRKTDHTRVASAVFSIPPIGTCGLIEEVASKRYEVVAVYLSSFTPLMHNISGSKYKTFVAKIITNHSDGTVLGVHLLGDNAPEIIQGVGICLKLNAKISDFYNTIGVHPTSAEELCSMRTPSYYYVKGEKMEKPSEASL

With `CN(C)CC1CCC(CN(C)C)C1=O` (centres unmarked) [NC884], the values for the IC50 (in the test with LLC-MK2 cells; in test [1] (setting [6]); in the test on Hs27 human fibroblasts) were 15100 ± 330 nM, 987 ± 110 nM and 16300 ± 170 nM, respectively. Moreover, the “parasite burden / percentage of infected cells, T. cruzi infected mammalian cells” value (from here on “parasite burden / percentage”) in test [1] (3 or more amastigotes per cell) is reported as “significantly reduced the parasite burden”. Also, the “inhibition of lipoamide dehydrogenase” value in test [2] is on record as “time-dependent irreversible inhibition”. Also, the concentration giving a half-maximal response (EC50) with T. cruzi epimastigotes (setting [7]) and in the test on T. cruzi epimastigotes (setting [8]) was 475 nM throughout. Besides, in test [3], the “inhibition of trypanothione reductase” value was “time-dependent irreversible inhibition”. Further, in the test with L. major promastigotes [4], the “mitochondrial membrane potential (Δψm) vs 1% DMSO” value is reported as “concentration dependent loss in Δψm”. Also, the “annexin V binding (apoptosis-like effect) vs 1% DMSO” value (shortened to “annexin V binding … vs 1% DMSO”) with L. major promastigotes [5] is given as “significantly induced an apoptosis-like effect”.
With `CN(C)CC1CCCC(CN(C)C)C1=O` (centres unmarked) [NC901], the figures for the IC50 (with LLC-MK2 cells; in test [1] (setting [6]); in the test with Hs27 human fibroblasts) were 8020 ± 250 nM, 301 ± 90 nM and 16000 ± 120 nM, respectively. Besides, the “parasite burden / percentage” value in test [1] (3 or more amastigotes per cell) was “significantly reduced the parasite burden”. Besides, the “inhibition of lipoamide dehydrogenase” value in test [2] was “time-dependent irreversible inhibition”. The EC50 with T. cruzi epimastigotes (setting [7]) and in the test with T. cruzi epimastigotes (setting [8]) was 468 nM in each case. The “inhibition of trypanothione reductase” value in test [3] is on record as “time-dependent irreversible inhibition”. Besides, the “mitochondrial membrane potential (Δψm) vs 1% DMSO” value with L. major promastigotes [4] is “concentration dependent loss in Δψm”. In addition, the “annexin V binding … vs 1% DMSO” value with L. major promastigotes [5] was “significantly induced an apoptosis-like effect”.
On to `O=C1/C(=C/c2ccccc2)CN(C(=O)C(=O)N2C/C(=C\c3ccccc3)C(=O)/C(=C/c3ccccc3)C2)C/C1=C\c1ccccc1` [NC2459], for which the IC50 in the test on LLC-MK2 cells was found to be 2000 ± 93 nM; in test [1] (48 hours, 3 or more amastigotes per cell, read-out: IC50, T. cruzi amastigote-infected human osteoblasts), 227 nM; in test [1] (setting [6]) it was 227 ± 40 nM; in the test on Hs27 human fibroblasts, 10010 ± 90 nM. Besides, in test [1] (3 or more amastigotes per cell), the “parasite burden / percentage” value is recorded as “significantly reduced the parasite burden”. Further, the EC50 in the test with T. cruzi epimastigotes (setting [7]) and in the test on T. cruzi epimastigotes (setting [8]) was 20 nM in each case. Further, the “mitochondrial membrane potential (Δψm) vs 1% DMSO” value in the test with L. major promastigotes [4] is “concentration dependent loss in Δψm”. Further, the “annexin V binding … vs 1% DMSO” value with L. major promastigotes [5] is “significantly induced an apoptosis-like effect”.
